Results taken from US11351130B2, “Prevention and reversal of inflammation induced DNA damage” (Indiana University Research and Technology Corporation, priority 2017, dated 2022).

Key:
[1] = tested on: NFκB; assay: NF-κB luciferase reporter transactivation assay; format: cell-based; settings: read-out: inhibition of NFκB binding to the reporter construct, IC50
Procedure: Reporter assays were performed as previously described (Georgiadis et al., 2008; Kelley et al., 2011; Cardoso et al., 2012b; Luo et al., 2012). Cells were transfected with NF-κB-Luciferase construct containing an NF-κB-response promoter and driving the expression of a luciferase gene and a Renilla luciferase control reporter vector pRL-CMV. After a 24-hour transfection period, cells were lysed, and Firefly and Renilla luciferase activities were assayed using Renilla luciferase activity for normalization. All of the transfection experiments were performed in triplicate and repeated at least three times in independent experiments. Data are expressed as mean±standard error from a representative experiment, and Student's t tests were performed.

[2] = tested on: sensory neuronal cultures; assay: Neuronal cell viability (trypan blue exclusion); format: cell-based
Procedure: (§1) Primary cultures of sensory neurons were harvested and maintained as previously described (Vasko et al., 2005). Briefly, adult male Sprague-Dawley rats (150-175 g; Harlan, Indianapolis, Ind.) were euthanized by CO2 asphyxiation and dorsal root ganglia (DRG) dissected from all spinal levels, transferred to into a collagenase solution (1 mg/ml), incubated for 1 hour at 37° C., then dissociated by mechanical agitation. Approximately 30,000 cells or 60,000 cells were plated into each well of 12-well or 6-well culture plates, respectively. All culture dishes were precoated with poly-D-lysine and laminin. Cells were maintained in F-12 media supplemented with 10% horse serum, 2 mM glutamine, 100 μg/ml Normocin™, 50 μg/ml penicillin, 50 μg/ml streptomycin, 50 μM 5-fluoro-2′-deoxyuridine (Invitrogen), 150 μM uridine, and 30 ng/ml of NGF in 3% CO2 at 37° C. Growth medium was changed every other day. Experiments were performed after cells were maintained in culture for 12-14 days.
Sensory neuronal culture trypan blue exclusion analysis was performed as previously described (Vasko et al., 2011). Cells were detached by adding a 0.05% trypsin-EDTA solution and media to each well. An equal volume of 0.4% (w/v) trypan blue in PBS was added to the cell suspension and the numbers of living cells (i.e., those that exclude the dye) were counted under a phase contrast microscope using a hemacytometer. Percent survival was calculated as the percent of live cells divided by the total cell number (including dead and live cells).

[3] = tested on: sensory neurons in culture; format: cell-based, rat
Procedure: as §1
For release experiments, cell cultures were washed with HEPES buffer consisting of (in mM) 25 HEPES, 135 NaCl, 3.5 KCl, 2.5 CaCl2, 1 MgCl2, 3.3 D-glucose, and 0.1% bovine serum albumin, pH 7.4 and maintained at 37° C. They then were incubated for successive 10-minute intervals with 0.4 ml of HEPES buffer alone (basal release), with buffer containing 30 nM capsaicin, then with buffer alone (to assess return to basal release). After each incubation, the buffer was removed and the amount of immunoreactive calcitonin-gene related peptide (CGRP) in each sample was measured using radioimmunoassay (RIA) as previously described (Chen et al., 1996). At the end of the release protocol, CGRP is extracted from the cultures and total content measured using RIA.

[4] = molecular target: T1, Ref-1/APE1 (Homo sapiens, UniProt P27695); assay: Ref-1/APE1 endonuclease activity in tumor cells; format: cell-based
T1 construct: endogenous in cells
T1 sequence (P27695 whole entry): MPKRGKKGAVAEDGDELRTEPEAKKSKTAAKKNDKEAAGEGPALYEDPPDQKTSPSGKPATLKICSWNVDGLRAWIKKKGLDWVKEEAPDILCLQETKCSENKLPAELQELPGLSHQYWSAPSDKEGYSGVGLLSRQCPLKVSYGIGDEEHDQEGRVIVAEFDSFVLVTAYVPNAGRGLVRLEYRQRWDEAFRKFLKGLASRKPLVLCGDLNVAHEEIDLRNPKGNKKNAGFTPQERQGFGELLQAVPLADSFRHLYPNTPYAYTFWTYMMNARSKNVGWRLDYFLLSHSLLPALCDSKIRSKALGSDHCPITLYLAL

CCCCCCCCC/C(=C\C1=C(C)C(=O)C(OC)=C(OC)C1=O)C(=O)O [APX3330]
IC50 [1]: 45 µM | effect on cisplatin-induced cell death ([2]; 20 μM for 48 hours prior to and throughout the cisplatin treatment (24 hours)): blocked | cell death / cell viability, drug alone ([2]; 24 hours, E3330 10, 20 or 40 μM, APX2009 various concentrations): no significant cell death | effect on cisplatin-induced reduction in capsaicin-evoked CGRP release ([3]; 20 μM for 48 hours prior to and throughout exposure to 10 μM cisplatin): abolished the reduction in release | basal (resting) release or release of CGRP stimulated by 30 nM capsaicin, drug alone ([3]; 72 hours, E3330 20 μM, APX2009 10 or 20 μM, compared to untreated cells): no significant change | Ref-1/APE1 endonuclease activity [4]: not observed in tumor cells
